Laboratory results published in the supplement of paper PMC11821682.

How the values were obtained:
[1] = test system: Danio rerio embryo; assay: BMC10 any morphological effect or mortality at 120 hpf; higher = less toxic
[2] = test system: Danio rerio embryo; assay: LEL larval photomotor response dark phase 120 hpf
Protocol: (§1)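 ZBEscreen: dechorionated Tropical 5D zebrafish embryos were exposed from 4 hpf in 96-well plates (1% DMSO, 28 °C). All compounds were first tested at 100 µM; hits were retested at 0.005-100 µM. Morphology and mortality were scored at 120 hpf and fitted as BMC10 (3-parameter log-logistic, extra risk). The embryonic photomotor response at 24 hpf and the larval photomotor response at 120 hpf are given as lowest effect levels (K-S test, p<0.01). NA = not significant up to 100 µM; NT = not tested.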

[3] = test system: Danio rerio embryo; assay: LEL embryonic photomotor response 24 hpf
Protocol: as §1

[4] = test system: HL-60; assay: Cell Health Index (toxicity pseudo-probability over dose series) (index 0-1); higher = more cytotoxic / cell stress;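 note: HL-60 cells exposed 4 h at 37 °C to ten threefold dilutions spanning 5 nM to 100 µM, multiparametric flow cytometry features scored by machine-learning classification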

SMILES	BMC10 any morphological effect or mortality [1] [µM]	LEL larval photomotor response dark phase 120 hpf [2] [µM]	LEL embryonic photomotor response 24 hpf [3] [µM]	Cell Health Index [4]
C[C@@H]1CC[C@H]2[C@@H](C)C(=O)O[C@@H]3O[C@@]4(C)CC[C@@H]1[C@]32OO4 [Artemisinin]	39.4	3.7	33.3	0.169
C[C@@]1(O)[C@H](O)[C@@H](CO)O[C@H]1n1ccc(N)nc1=O [2'-C-Methylcytidine]	> 100	> 100	> 100	0.129
O=C(Nc1ccccc1F)N[C@H]1N=C(c2ccccc2)c2ccccc2NC1=O [RSV-604]	> 100	> 100	> 100	0.368
OC[C@H]1O[C@@H](O[C@@H]2OC=C[C@H]3[C@H](O)[C@@H]4O[C@]4(CO)[C@@H]23)[C@H](O)[C@@H](O)[C@@H]1O [Catalpol]	> 100	> 100	> 100	0.184
O=c1cc(-c2ccccc2)oc2cc(O)c(O)c(O)c12 [Baicalein]	> 100	> 100	> 100	0.551
OC[C@H]1O[C@@H](O[C@H]2C(O)O[C@H](CO)[C@@H](O)[C@@H]2O)[C@H](O)[C@@H](O)[C@@H]1O (stereo partly specified) [Sophorose]	> 100			0.187
CC(C)OC(=O)OCOP(=O)(CO[C@H](C)Cn1cnc2c(N)ncnc21)OCOC(=O)OC(C)C.O=C(O)/C=C/C(=O)O [Tenofovir Disoproxil]	> 100			0.212
O[C@H]1[C@@]2([H])[C@](CC[C@]2([H])[C@@](CC/C=C(C)/C)(C)O[C@@H]3O[C@H](CO[C@H]4[C@H](O)[C@@H](O)[C@@H](O)CO4)[C@@H](O)[C@H](O)[C@H]3O)(C)[C@]5(C)CC[C@]6([H])[C@@](CC[C@H](O[C@]7([H])O[C@H](CO)[C@@H](O)[C@H](O)[C@H]7O[C@@]8([H])[C@H](O)[C@@H](O)[C@H](O)[C@@H](CO)O8)C6(C)C)(C)[C@@]5([H])C1 [Ginsenoside Rb2]	> 100			0.173
Cc1nnc(C(=O)NC(C)(C)c2nc(C(=O)NCc3ccc(F)cc3)c([O-])c(=O)n2C)o1.[K+] [Raltegravir]	> 100			0.218
CC(C)CC(=O)N[C@H](C(=O)N[C@H](C(=O)N[C@@H](CC(C)C)[C@@H](O)CC(=O)N[C@@H](C)C(=O)N[C@@H](CC(C)C)[C@@H](O)CC(=O)O)C(C)C)C(C)C [Pepstatin A]	> 100			0.154
COc1cccc(N2CCN(C3=Nc4c(F)cccc4[C@H](CC(=O)O)N3c3cc(C(F)(F)F)ccc3OC)CC2)c1 [Letermovir]	> 100			0.303
O=C(/C=C/c1ccc(O)c(O)c1)O[C@@H]1C[C@](O)(C(=O)O)C[C@@H](O)[C@H]1O [Chlorogenic acid]	> 100			0.232
c1ccc(CNCc2ccc(CN3CCCNCCNCCCNCC3)cc2)nc1 [AMD 3465 parent]	> 100			0.232
O=C(/C=C/c1ccc(O)c(O)c1)O[C@@H]1[C@H](O)C[C@@](O)(C(=O)O)C[C@H]1OC(=O)/C=C/c1ccc(O)c(O)c1 [3,4-Dicaffeoylquinic acid]	> 100			0.416
Cc1cccc(C)c1N(CC(=O)Nc1ccc(-c2ncon2)cc1)C(=O)C1CCS(=O)(=O)CC1 [Amenamevir]	> 100			0.215
Nc1nc(S)c2nc[nH]c2n1 [Thioguanine]	> 100			0.294
CC(C)(C)NC(=O)[C@@H]1CN(Cc2cccnc2)CCN1C[C@@H](O)C[C@@H](Cc1ccccc1)C(=O)N[C@H]1c2ccccc2C[C@H]1O.O=S(=O)(O)O [Indinavir]	> 100			0.233
CC(C)[C@H](N)C(=O)OCCOCn1cnc2c(=O)nc(N)[nH]c21.Cl [Valacyclovir]	> 100			0.145
Oc1cc(O)c2c(c1)O[C@@H](c1ccc(O)c(O)c1)[C@H](O)C2 [(-)-Catechin]	> 100			0.201
O=c1c(-c2ccc(O)c(O)c2)coc2cc(O)ccc12 [3',4',7-Trihydroxyisoflavone]	> 100			0.478
CCC[C@H](NC(=O)[C@@H]1[C@H]2CCC[C@H]2CN1C(=O)[C@@H](NC(=O)[C@@H](NC(=O)c1cnccn1)C1CCCCC1)C(C)(C)C)C(=O)C(=O)NC1CC1 [Telaprevir]	> 100			0.402
CC(N)C12C[C@H]3C[C@@H](C1)C[C@@H](C2)C3.Cl (stereo partly specified) [Rimantadine]	> 100			0.137
Cl.NCCc1ccc(S(=O)(=O)F)cc1 [AEBSF]	> 100			0.32
O=c1c(O[C@@H]2O[C@H](CO)[C@H](O)[C@H](O)[C@H]2O)c(-c2ccc(O)c(O)c2)oc2cc(O)cc(O)c12 [Quercetin 3-D-galactoside]	> 100			0.218

SMILES	BMC10 any morphological effect or mortality [1] [µM]	LEL larval photomotor response dark phase 120 hpf [2] [µM]	LEL embryonic photomotor response 24 hpf [3] [µM]	Cell Health Index [4]
CCCOCCCCCCCCCC(=O)O [10-propoxy-Decanoic acid]	> 100			0.168
CC(C)(C)OC(=O)N[C@H]1CCCCC/C=C\[C@@H]2C[C@@]2(C(=O)NS(=O)(=O)C2CC2)NC(=O)[C@@H]2C[C@@H](OC(=O)N3Cc4cccc(F)c4C3)CN2C1=O [Danoprevir]	> 100			0.26
CCCC(CCC)C(=O)O [Valproic acid]	> 100			0.188
O=c1[nH]c(=O)n([C@H]2C[C@H](O)[C@@H](CO)O2)cc1C(F)(F)F [Trifluorothymidine]	> 100			0.138
CCCCc1nc(Cl)c(CO)n1Cc1ccc(-c2ccccc2-c2nnn[n-]2)cc1.[K+] [Losartan]	> 100			0.209
c1cc(CN2CCCNCCNCCCNCC2)ccc1CN1CCCNCCNCCCNCC1 [Plerixafor]	> 100			0.115
CC(C)OC(=O)[C@H](C)NP(=O)(OC[C@H]1O[C@@H](n2ccc(=O)[nH]c2=O)[C@](C)(F)[C@@H]1O)Oc1ccccc1 (stereo partly specified) [Sofosbuvir]	> 100			0.166
COc1cc2cc(Oc3ccc4ccc(=O)oc4c3)c(=O)oc2cc1O [Daphnoretin]	> 100			0.178
O=c1cc(-c2ccccc2)oc2c(O)c(O)ccc12 [7,8-Dihydroxyflavone]	> 100			0.507
Oc1ccc(/C=C\c2cc(O)cc(O)c2)cc1 [Resveratrol]	> 100			0.416
CC(=O)Oc1ccccc1C(=O)O [Aspirin]	> 100			0.198
CC(=O)N[C@H]1[C@H]([C@H](O)[C@H](O)CO)OC(C(=O)O)=C[C@@H]1NC(=N)N [Zanamivir]	> 100			0.22
O=c1[nH]cnc2c1ncn2[C@H]1CC[C@@H](CO)O1 [Didanosine]	> 100			0.159
C#Cc1cn([C@H]2C[C@H](O)[C@@H](CO)O2)c(=O)nc1N [5'-Ethynyl-2'-deoxycytidine]	> 100			0.13
C=C[C@H]1C[N@@]2CC[C@H]1C[C@H]2[C@H](O)c1ccnc2ccc(OC)cc12 [Quinine]	> 100			0.249
Nc1ccn([C@H]2CC[C@@H](CO)O2)c(=O)n1 [Zalcitabine]	> 100			0.193
Nc1ccc(C(=O)Nc2cccc(-c3nc(N4CCOCC4)c4oc5ncccc5c4n3)c2)cn1	> 100			0.615
CCC(CC)COC(=O)[C@H](C)N[P@](=O)(OC[C@H]1O[C@@](C#N)(c2ccc3c(N)ncnn23)[C@H](O)[C@@H]1O)Oc1ccccc1 [Remdesivir]	> 100			0.275
CC(C)CN(C[C@@H](O)[C@H](Cc1ccccc1)NC(=O)O[C@H]1CCOC1)S(=O)(=O)c1ccc(N)cc1 [Amprenavir]	> 100			0.181
COc1ccc([C@@H]2CC(=O)c3c(O)cc(O[C@@H]4O[C@H](CO[C@@H]5O[C@@H](C)[C@H](O)[C@@H](O)[C@H]5O)[C@@H](O)[C@H](O)[C@H]4O)cc3O2)cc1O [Hesperidin]	> 100			0.204
O=c1[nH]c(=O)n([C@@H]2O[C@H](CO)[C@@H](O)[C@@H]2F)cc1I [Fialuridine]	> 100			0.209
O=c1cc(-c2ccc(O)c(O)c2)oc2c([C@@H]3O[C@H](CO)[C@@H](O)[C@H](O)[C@H]3O)c(O)cc(O)c12 [Orientin]	> 100			0.337
COC[C@H]1C[C@@H](c2ncc(-c3ccc4c(c3)COc3cc5c(ccc6nc([C@@H]7CC[C@H](C)N7C(=O)[C@@H](NC(=O)OC)C(C)C)[nH]c65)cc3-4)[nH]2)N(C(=O)[C@H](NC(=O)OC)c2ccccc2)C1 [Velpatasvir]	> 100			0.286
COc1ccc(C2CC(=O)c3c(O)cc(O)cc3O2)cc1O (stereo unspecified) [Hesperetin]	> 100			0.258
